Measured values as given in patent publication US4608365A, “Treatment of neurologic functions” (priority 1984, dated 1986).

Legend:
patients given TRH = experiment: Amelioration of TRH side-effects by co-medication; set-up: species or system human; settings: in vivo
From the text: In addition, all patients experiencing the various described side-effects considered those side-effects to be minor and desired further TRH treatments.

[1] = tested on: tissue-cultured fetal rat lower motor neurons; experiment: Trophic-like effect on tissue-cultured fetal rat lower motor neurons (cholineactyltransferase); type: cell-based; settings: chronic
From the text: "Transmitter-like," as used herein, includes not only direct excitatory (or facilitatory) and inhibitory actions on the lower motor neurons, but also any action on lower motor neurons or afferents thereto that results indirectly in such an effect. That excitatory TRH action, increasing patients' strength, is either directly excitatory or facilitatory and perhaps analogous to the lower motor neuron facilitation of glutamate excitation noted with TRH micropipetted into spinal cords of normal amphibia (Nicoll, J. Pharmac. Exp. Therap. 1978; 207: 817-24; Phillis et al., Can. J. Physiol. Pharmacol. 1979; 57: 887-99 and rodents, White Abstr. Soc. Neurosci 1983, 9: 714, and in other animal studies. An inhibitory transmitter-like action seems likely to underlie both the rapid-onset autorefractory phenomenon and the possibly related clinical reduction of spasticity, spasms and cramps. A tachyphalaxis or desensitization phenomenon, perhaps similar to the clinical autorefractory state, has been noted in animal lower motor neurons with larger amounts of TRH micropipetted into the spinal cord (Nicoll and Phillis, et al., supra).

CN(C)CCOC(c1ccccc1)c1ccccc1.Cn1c(=O)c2[nH]c(Cl)nc2n(C)c1=O [dimenhydrate]
effect on nausea side-effect of TRH (patients given TRH): diminishes the rare, occurring nausea side-effect

insulin
enhancement of cholineactyltransferase [1]: 10 fold

CC(N)C(O)c1ccccc1 (stereo not drawn) [phenylpropanolamine]
effect on shivering side-effect of TRH (patients given TRH): diminish the shivering side-effect
